# Values of other authors in patent publication US20240016938A1, “METHODS FOR INCREASING THE BIOAVAILABILITY OF NUCLEOSIDE MEDICINAL AGENTS” (ZOGENIX MDS, INC., priority 2022, published 2024).
# Settings: 600-mg oral dose; food intake immediately before oral dosing; cited from earlier work
structure (smiles),measurement,value
"Cc1cn([C@@H]2C[C@@H](O)[C@H](CO)O2)c(=O)[nH]c1=O [telbivudine, 3-L-2-deoxythymidine]","absorption as measured by Cmax, Tmax, AUC(0-t), and AUC(0-infinity), fed vs fasting",not altered by food intake
